The assay has as its target CB1 (mutant) (Homo sapiens, UniProt P21554). Put plainly: R-SAT functional receptor assay, CB1 (mutant, truncated after amino acid 417). Particulars: R-SAT CB1; for Emax / % Inhibition: receptor form not stated, relative to SR141716 (100%). It is filed as cell-based.
Setting [1] is: Appendix A, receptor form (mutant or wild-type) not stated, read-out: pIC50 (converted).
Setting [2] is: Appendix A, read-out: % Inhibition.
[3] abbreviates: pIC50, Appendix A, receptor form (mutant or wild-type) not stated.

Where two headings read alike, the source gives them in different places.

Chain of CB1 (mutant) (P21554 1-417, change not shown): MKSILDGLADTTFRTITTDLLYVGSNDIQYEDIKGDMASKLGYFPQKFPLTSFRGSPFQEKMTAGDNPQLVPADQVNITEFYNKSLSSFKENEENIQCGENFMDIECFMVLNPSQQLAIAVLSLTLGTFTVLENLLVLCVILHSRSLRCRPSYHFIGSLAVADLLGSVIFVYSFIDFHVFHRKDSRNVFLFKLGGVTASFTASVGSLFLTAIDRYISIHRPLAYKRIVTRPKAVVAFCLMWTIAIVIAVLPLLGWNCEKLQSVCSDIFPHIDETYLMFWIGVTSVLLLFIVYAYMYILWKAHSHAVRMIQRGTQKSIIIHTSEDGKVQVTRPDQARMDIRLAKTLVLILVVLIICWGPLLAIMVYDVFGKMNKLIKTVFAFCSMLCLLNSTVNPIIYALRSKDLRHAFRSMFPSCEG

With `CC(CNC(=O)c1ccc2c(c1)N=C(c1cccc(Cl)c1)c1ccccc1S2)c1ccccc1` (stereo not shown) [drawing 587], the IC50 under setting [1] was 3.16 nM. Besides, the Emax under setting [2] was determined as 112%.
For `O=C(Cc1ccccc1)NNC(=O)c1ccc2c(c1)N=C(c1ccc(Cl)cc1)c1ccccc1S2` [drawing 588], the IC50 under setting [1] was 50.1 nM. Moreover, under setting [2], the Emax is 85%.
The corresponding values for `O=C(NCc1ccc(F)cc1)c1ccc2c(c1)N=C(c1ccc(Cl)cc1)c1ccccc1S2` [drawing 589] are 3.16 nM and 106%.
For the compound `O=C(NCc1ccc(F)cc1)c1ccc2c(c1)N=C(C1CCCCC1)c1ccccc1S2` [drawing 591], under setting [1], the IC50 was 3.16 nM. For the same compound, the Emax under setting [2] turned out to be 102%.
As usually defined, the pIC50 is the negative decadic logarithm of the IC50, by convention in mol/L. Low values mean a large IC50, high ones a small IC50. Usually % Inhibition stands for the percentage by which the read-out fell short of the control. Lower therefore signals a weak effect. On to `O=C(NCc1cccs1)c1ccc2c(c1)N=C(c1cccc(F)c1)c1ccccc1S2` [drawing 593], for which the negative-log IC50 (pIC50) (Appendix A, receptor form (mutant or wild-type) not stated) was determined as 8.5. Moreover, for the setting “Appendix A”, the “% Inhibition” value worked out at 93%.
In the case of `O=C(NCc1ccccc1Cl)c1ccc2c(c1)N=C(c1ccccc1)c1ccccc1S2` [drawing 594], the IC50 under setting [1] is 50.1 nM. Also, the Emax under setting [2] is 86%.
Turning to `O=C(NCc1cccs1)c1ccc2c(c1)N=C(c1cccc(F)c1)c1ccccc1S2` [drawing 595], the IC50 under setting [1] is 3.16 nM. Besides, under setting [2], the Emax came out at 100%.
Consider `CCOCCNC(=O)c1ccc2c(c1)N=C(c1ccc(F)cc1)c1ccccc1S2` [drawing 596], for which the IC50 under setting [1] is 50.1 nM. Further, the Emax under setting [2] stood at 94%.
For `O=C(NN1CCCCCC1)c1ccc2c(c1)N=C(c1cccc(Cl)c1)c1ccccc1S2` [drawing 597], the IC50 under setting [1] is 3.98 nM. In addition, the Emax under setting [2] turned out to be 95%.
Consider `O=C(NC1CCCCC1)c1ccc2c(c1)N=C(c1ccccn1)c1ccccc1S2` [drawing 598], for which the Emax under setting [2] turned out to be 112%. Under setting [3], this compound gave an IC50 of 50.1 nM.
Consider `Cc1ccsc1C1=Nc2cc(C(=O)NCCCC(F)(F)F)ccc2Sc2ccccc21` [drawing 599], for which the IC50 under setting [1] was 3.98 nM. In addition, the Emax under setting [2] is 111%.
`O=C(NCCc1ccccc1)c1ccc2c(c1)N=C(c1ccccc1F)c1ccccc1S2` [drawing 600]: under setting [1], the IC50 is 50.1 nM. Further, the Emax under setting [2] worked out at 98%.
Take `O=C(NCCCC(F)(F)F)c1ccc2c(c1)N=C(c1ccc(Cl)cc1)c1ccccc1S2` [drawing 601]: under setting [1], the IC50 was 3.98 nM. Besides, the Emax under setting [2] worked out at 105%.
Regarding `O=C(NCc1ccccc1Br)c1ccc2c(c1)N=C(c1ccccc1F)c1ccccc1S2` [drawing 602], the IC50 under setting [1] was 50.1 nM. Moreover, under setting [2], the Emax is 65%.
For the compound `O=C(NCc1cccc(Cl)c1)c1ccc2c(c1)N=C(c1cccc(Cl)c1)c1ccccc1S2` [drawing 603], under setting [1], the IC50 was 3.98 nM. Further, the Emax under setting [2] worked out at 112%.
Turning to `CCOCCNC(=O)c1ccc2c(c1)N=C(c1ccc(Cl)cc1)c1ccccc1S2` [drawing 604], under setting [1], the IC50 was 50.1 nM. The Emax under setting [2] was found to be 92%.
In the case of `O=C(NCCC(F)(F)F)c1ccc2c(c1)N=C(c1ccsc1)c1ccccc1S2` [drawing 607], the Emax under setting [2] turned out to be 97%. The compound further gave an IC50 under setting [3] of 3.98 nM.
Turning to `O=C(NCc1ccccc1Br)c1ccc2c(c1)N=C(c1ccc(Cl)cc1)c1ccccc1S2` [drawing 608], the IC50 under setting [1] was 50.1 nM. In addition, the Emax under setting [2] is 94%.
In the case of `CC(C)CNC(=O)c1ccc2c(c1)N=C(c1cccc(Cl)c1)c1ccccc1S2` [drawing 609], under setting [1], the IC50 is 3.98 nM. Further, the Emax (read-out: % Inhibition, Appendix A) came out at 116%.
Turning to `O=C(NN1CCCCC1)c1ccc2c(c1)N=C(N1CCCCC1)c1ccccc1S2` [drawing 610], under setting [1], the IC50 was 50.1 nM. Moreover, the Emax under setting [2] is 104%.
The corresponding values for `O=C(NCc1ccc(F)cc1)c1ccc2c(c1)N=C(N1CCCCC1)c1ccccc1S2` [drawing 611] are 3.98 nM and 80%.
On to `O=C(NCc1ccccn1)c1ccc2c(c1)N=C(c1ccc(Br)cc1)c1ccccc1S2` [drawing 612], for which the IC50 under setting [1] was 50.1 nM. Further, the Emax under setting [2] came to 90%.
`CC(C)CNC(=O)c1ccc2c(c1)N=C(c1ccc(Cl)cc1F)c1ccccc1S2` [drawing 613]: under setting [1], the IC50 is 3.98 nM. Under setting [2], the Emax came to 110%.
The like results for `O=C(NCCCc1ccccc1)c1ccc2c(c1)N=C(c1cccc(Cl)c1)c1ccccc1S2` [drawing 615] were, in that order, 3.98 nM and 110%.
As for `O=C(NCCCc1ccccc1)c1ccc2c(c1)N=C(c1ccccc1)c1ccccc1S2` [drawing 617], under setting [1], the IC50 is 3.98 nM. Also, the Emax under setting [2] amounted to 111%.
`Cc1ccsc1C1=Nc2cc(C(=O)NC3CCC(F)(F)CC3)ccc2Sc2ccccc21` [drawing 620]: the Emax under setting [2] amounted to 76%. Further, the IC50 under setting [3] was 63.1 nM.
Regarding `O=C(NCc1ccco1)c1ccc2c(c1)N=C(c1ccc(Cl)s1)c1ccccc1S2` [drawing 621], the IC50 under setting [1] is 3.98 nM. Also, the Emax under setting [2] was determined as 118%.
Consider `O=C(NCc1ccccc1Cl)c1ccc2c(c1)N=C(c1ccccc1F)c1ccccc1S2` [drawing 622], for which the Emax under setting [2] stood at 72%. The IC50 under setting [3] is 63.1 nM.
For the compound `Cc1ccc(CNC(=O)c2ccc3c(c2)N=C(c2cccc(Cl)c2)c2ccccc2S3)o1` [drawing 623], the IC50 under setting [1] was 5.01 nM. Besides, the Emax under setting [2] is 74%.
On to `O=C(NN1CCCCCC1)c1ccc2c(c1)N=C(c1ccc(Cl)cc1)c1ccccc1S2` [drawing 624], for which the IC50 under setting [1] is 63.1 nM. The Emax under setting [2] is 103%.
As for `O=C(NCCC(F)(F)F)c1ccc2c(c1)N=C(c1cccc(F)c1)c1ccccc1S2` [drawing 625], under setting [1], the IC50 was 5.01 nM. In addition, under setting [2], the Emax is 85%.
As for `CC(C)CNC(=O)c1ccc2c(c1)N=C(c1ccccc1F)c1ccccc1S2` [drawing 627], the IC50 under setting [1] was 5.01 nM. The Emax under setting [2] was determined as 118%.
`O=C(NCCc1ccc(Cl)cc1)c1ccc2c(c1)N=C(N1CCC(F)(F)CC1)c1ccccc1S2` [drawing 628]: under setting [1], the IC50 is 63.1 nM. Also, under setting [2], the Emax is 99%.
As to `CC(C)CNC(=O)c1ccc2c(c1)N=C(c1cccc(F)c1)c1ccccc1S2` [drawing 629], the IC50 under setting [1] is 5.01 nM. Also, under setting [2], the Emax came to 112%.
Consider `CCCCNC(=O)c1cc2c(cc1C)Sc1ccccc1C(c1ccc(Cl)cc1)=N2` [drawing 630], for which the Emax under setting [2] is 94%. The IC50 under setting [3] was 63.1 nM.
`O=C(NCCc1ccc(Cl)cc1)c1ccc2c(c1)N=C(c1ccc(Cl)cc1)c1ccccc1S2` [drawing 631]: under setting [1], the IC50 was 5.01 nM. The Emax under setting [2] was 104%.
The like results for `CCCCNC(=O)c1ccc2c(c1)N=C(c1ccc(Cl)cn1)c1ccc(F)cc1S2` [drawing 632] were, in that order, 63.1 nM and 95%.
Consider `CCCCNC(=O)c1ccc2c(c1)N=C(c1ccc(Cl)s1)c1ccccc1S2` [drawing 633], for which the IC50 under setting [1] is 5.01 nM. The Emax under setting [2] was determined as 92%.
On to `CC(NC(=O)c1ccc2c(c1)N=C(C1CCCCC1)c1ccccc1S2)c1ccccc1` (stereo not shown) [drawing 634], for which the IC50 under setting [1] was 63.1 nM. Where the note is “Appendix A”, the “% Inhibition” value was 87%.
Take `CCN(CCNC(=O)c1ccc2c(c1)N=C(c1ccc(Cl)cc1)c1ccccc1S2)c1ccccc1` [drawing 635]: the IC50 under setting [1] is 5.01 nM. Further, under setting [2], the Emax was found to be 102%.
In the case of `O=C(NCc1cccc(Cl)c1)c1ccc2c(c1)N=C(C1CCCCC1)c1ccccc1S2` [drawing 637], the IC50 under setting [1] is 5.01 nM. Moreover, the Emax under setting [2] worked out at 112%.
The like results for `O=C(NCCc1cccnc1)c1ccc2c(c1)N=C(c1ccc(Cl)cc1)c1ccccc1S2` [drawing 638] were, in that order, 63.1 nM and 116%.
`CC(CNC(=O)c1ccc2c(c1)N=C(c1ccc(F)cc1)c1ccccc1S2)c1ccccc1` (stereo not shown) [drawing 639]: the Emax under setting [2] is 98%. The compound further showed an IC50 under setting [3] of 5.01 nM.
Consider `CCCNC(=O)c1ccc2c(c1)N=C(c1cccc(Cl)c1)c1ccccc1S2` [drawing 641], for which, under setting [1], the IC50 is 5.01 nM. In addition, the Emax under setting [2] was determined as 107%.
For the compound `CC(C)CNC(=O)c1ccc2c(c1)N=C(c1ccc(Cl)c(Cl)c1)c1ccccc1S2` [drawing 643], the IC50 under setting [1] was 5.01 nM. The Emax under setting [2] turned out to be 108%.
For the compound `O=C(NCCCc1ccccc1)c1ccc2c(c1)N=C(c1ccc(Cl)cc1)c1ccccc1S2` [drawing 645], the Emax under setting [2] amounted to 106%. The same compound gave an IC50 under setting [3] of 5.01 nM.
For `O=C(NCc1ccccc1)c1ccc2c(c1)N=C(c1ccc(Cl)cc1)c1ccccc1S2` [drawing 647], the IC50 under setting [1] was 5.01 nM. Moreover, under setting [2], the Emax came to 105%.
Consider `O=C(NCc1cccc(Cl)c1)c1ccc2c(c1)N=C(N1CCCCC1)c1cc(F)ccc1S2` [drawing 649], for which, under setting [1], the IC50 is 5.01 nM. Besides, the Emax under setting [2] was 107%.
`O=C(NCc1cccc(Cl)c1)c1ccc2c(c1)N=C(c1cccc(Cl)c1)c1cc(F)ccc1S2` [drawing 651]: under setting [1], the IC50 is 5.01 nM. Also, the Emax under setting [2] was found to be 107%.
As for `Cc1ccsc1C1=Nc2cc(C(=O)NC3CCCC3)ccc2Sc2ccccc21` [drawing 652], the IC50 under setting [1] was 63.1 nM. Also, under setting [2], the Emax is 81%.
For `COc1cccc(C2=Nc3cc(C(=O)NC4CCC(F)(F)CC4)ccc3Sc3ccccc32)n1` [drawing 653], under setting [2], the Emax is 104%. Besides, the IC50 under setting [3] is 6.31 nM.
Turning to `Cc1csc(CNC(=O)c2ccc3c(c2)N=C(c2ccc(Cl)s2)c2ccccc2S3)c1` [drawing 655], the IC50 under setting [1] is 6.31 nM. Further, the Emax under setting [2] was 94%.
On to `CCCCNC(=O)c1ccc2c(c1)N=C(c1ccc(Cl)cc1)c1sccc1S2` [drawing 657], for which the IC50 under setting [1] is 6.31 nM. The Emax under setting [2] turned out to be 122%.
The like results for `O=C(NC1CCC(F)(F)CC1)c1ccc2c(c1)N=C(c1cccc(F)c1)c1ccccc1S2` [drawing 659] were, in that order, 6.31 nM and 77%.
Take `O=C(NN1CCCCC1)c1ccc2c(c1)N=C(c1ccc(F)cn1)c1ccccc1S2` [drawing 660]: the IC50 under setting [1] is 63.1 nM. The Emax under setting [2] stood at 92%.
Consider `Cc1csc(CNC(=O)c2ccc3c(c2)N=C(c2sccc2C)c2ccccc2S3)c1` [drawing 661], for which, under setting [1], the IC50 was 6.31 nM. The Emax under setting [2] is 102%.

The values are drawn from patent US20080090805A1, “CB-1 MODULATING COMPOUNDS AND THEIR USE” (ACADIA PHARMACEUTICALS INC., priority 2005, published 2008).
